Measured values reported in US20230103444A1 (The Regents of the University of Colorado, a Body Corporate, priority 2020, published 2023).
Entries after “also recorded” stand apart in the source; their conditions may differ.

Assays:
[1] = test system: E-cadherin promoter activity; assay: EcadPro-RFP reporter 3D high-content imaging in tumor organoids; format: cell-based; conditions: 72 h; for EC50: Homo sapiens, SW-620, read-out: EC50 upregulation of E-cadherin promoter activity, SW620 tumor organoids
Protocol: After validating hits 5-7 against CHD1L mediated TCF transcription, the ability of these compounds to reverse EMT and other malignant properties in CRC were evaluated. E-cadherin and vimentin are putative biomarkers for the epithelial and mesenchymal phenotypes, respectively. [McDonald et al., 2015] Loss of E-cadherin and gain of vimentin are also clinical biomarkers of poor prognosis. [Yun et al., 2014; Richardson et al., 2012; Dhanasekaran et al., 2001; Kashiwagi et al., 2010; Toiyama et al., 2013] Accordingly, lentiviral promoter driven reporters for E-cadherin (pCDH1-EcadPro-RFP) and vimentin (pCDH1-VimPro-GFP) were developed, which faithfully report E-cadherin and vimentin protein expression, respectively. [Zhou et al., 2016; Abraham et al., 2019] SW620 cells transduced with either EcadPro-RFP or VimPro-GFP were cultured as tumor organoids for 72 h, reaching a diameter of 600 μm. Tumor organoids were treated with compounds 5-7 for an additional 72 h to determine the effective concentration 50 percent (EC50) for modulating promoter activity. Changes in promoter expression was quantified using a 3D confocal image […] based high-content analysis algorithm (FIG. 2A-2B). [Zhou et al., 2016; Abraham et al., 2019]
CHD1L has been reported to confer anti-apoptotic activity by inhibiting activation of caspase-dependent apoptosis. [Li et al., 2013; Sun et al., 2016] Additionally, reversal or inhibition of EMT is known to restore apoptotic activity of cancer cells. [Lu et al., 2014] To determine if CHD1L inhibitors reverse EMT prior to induction of cell death, E-cadherin expression by EcadPro-RFP reporter activity was monitored and cytotoxicity was measured using the CellTox™ Green assay. Cells were treated with CHD1L inhibitors for 72 h and imaged every 2 h.
Stable VimPro-GFP or EcadPro-RFP SW620 reporter cells were generated using pCDH imPro-GFP-EF1-puro virus or pCDH-EcadPro-mCherry-EF1-puro virus as previously reported. [Zhou et al., 2016; Abraham et al., 2019] The stable fluorescently labeled reporter cells were used to generate tumor organoids as described herein. Tumor organoids were treated with CHD1L inhibitors at 10 μM for an additional 72 h. Following treatment, tumor organoids were stained with 16 μM of Hoechst 33342 for 1 h (nuclei stain). Images were taken with a 5× air objective. Z-stacks were set at 26.5 μm apart for a total of 15 optical slices. Imaging and high-content analysis were performed using an Opera Phenix™ and Harmony® software (PerkinElmer, Hopkinton, Mass.). Nuclei were identified within each layer and cells were found with either GFP or mCherry channel. The fluorescence intensities of each channel were calculated and thresholds were set based on the background intensities. Percentages of GFP or mCherry RFP positive cells were calculated and normalized to the DMSO treated group.
3D High-Content Imaging and Analysis of EMT Dual-Reporter Activity. Tumor organoids were imaged using the Opera Phenix high-content screening system (PerkinElmer) in confocal mode utilizing a 10× air objective (NA 0.3). The following excitation and emission (Ex/Em) wavelengths were employed: RFP (561/570-630) and GFP (488/500-550). Organoids were also imaged in Brightfield to segment and perform high-content analysis of dual reporter specific fluorescence intensity. RFP fluorescent signal correlates with E-Cadherin promoter activity, while GFP fluorescent signal is correlates with vimentin promoter activity. Both fluorescent signals were quantified and normalized as previously described. (Esquer, et al., 2021)

[2] = test system: HCT-116 and DLD1CHD1L-OE cells; assay: Clonogenic colony formation after 24 h pretreatment (CSC stemness); format: cell-based, human; conditions: colonies over 10 days
Protocol: To assess CHD1L inhibitors for their ability to suppress CSC stemness, HCT-116 or CHD1L overexpressing DLD1 cell lines were pre-treated in monolayer cultures for 24 h with vehicle control (0.5% DMSO) or CHD1L inhibitors at the concentrations indicated in FIG. 2C. Pretreated viable cells were plated at 1,000 cells/well in 6-well plates or 200 cells/well in a 24-well plates. Colonies were analyzed using the IncuCyte® S3 2018A (Sartorius, France) software (with the following parameters modified from default: (1) for HCT116 cells segmentation adjustment=0.6; Min area (μm2)=3×104; Max area (μm2)=1.6×106; Max eccentricity=0.9; (2) for DLD1CHD1L OE cells segmentation adjustment=1; Min area (μm2)=1×104; Max area was not constrained; Max eccentricity=0.95. Experiments were replicated 2× (n=2 for each experiment).

## Cc1cc(Nc2ccc(NC(=O)Cc3cccs3)cc2)nc(N2CCCC2)n1 [Compound 6, N-(4-((6-methyl-2-(pyrrolidin-1-yl)pyrimidin-4-yl)amino)phenyl)-2-(thiophen-2-yl)acetamide]
[1]; EcadPro-RFP reporter and CellTox Green, imaged every 2 h, relative to DMSO
  E-cadherin expression before onset of cytotoxicity: significant increase in E-cadherin expression prior to induction of cytotoxicity
[1]
  EC50: 11.4 ± 0.3 µM
[2]; listed as 6.0
  inhibition of CSC stemness (clonogenic colony formation), in words: more potent dose dependent inhibition; also recorded: significantly inhibits CSC stemness

## Cc1cc(Nc2ccc(NC(=O)c3c[nH]c4ccccc34)cc2)nc(N2CCCC2)n1 [Compound 6.3, N-(4-((6-methyl-2-(pyrrolidin-1-yl)pyrimidin-4-yl)amino)phenyl)-1H-indole-3-carboxamide]
[1]; SW620 or HCT116 tumor organoids
  upregulation of E-cadherin promoter activity (EcadPro-RFP), in words: upregulation of E-cadherin promoter activity
[2]
  inhibition of CSC stemness (clonogenic colony formation), in words: significantly inhibits clonogenic colony formation

## COc1ccc(-c2nc(S(=O)(=O)c3ccccc3)c(S(C)(=O)=O)o2)cc1 [Compound 5]
[1]
  EC50: 11.9 ± 0.3 µM
[2]
  inhibition of CSC stemness (clonogenic colony formation), in words: more potent dose dependent inhibition
